Assays:
[1] = tested on: mice OIR (Oxygen-Induced Retinopathy) model; assay: Mice OIR (oxygen-induced retinopathy) model, flat-mounted retina; type: in vivo, C57BL/6JJcl mice; conditions: ocular instillation 20 μL three times a day, day 12 to day 17 after birth, flat mount
Procedure: The effectiveness of (S)-(−)-1-(4-fluoro-5-isoquinolinesulfonyl)-2-methyl-1,4-homopiperazine (compound 1) in a mice OIR model commonly used as a model of ischemic retinopathy such as diabetic retinopathy was examined in the following manner. Compound 1 solutions: 0.4% solution, 0.8% solution (instillation volume: 20 μL) Fasudil solution: 0.4% solution (instillation volume: 20 μL) Test animals: C57BL/6JJcl mice (sex: male, 8 to 14 mice per group) C57BL/6JJcl mice born on the same day were reared in a 75%-oxygen environment from day 7 after birth, and were then transferred to a normal indoor environment on day 12 after birth to start administration by ocular instillation. Test groups were a saline instillation group (control), a 0.4% compound 1 solution instillation group, a 0.8% compound 1 solution instillation group, and a 0.4% fasudil solution instillation group, and saline, the compound 1 solution, or the fasudil solution was administered by ocular instillation three times a day. On day 17 after birth, ischemic retinal areas (non-perfused areas) and neovascular areas were quantified for evaluation by flat-mounting or fluorescein fundus angiography. More specifically, 1 g/kg of pentobarbital (Nembutal) was administered intraperitoneally for euthanasia under deep anesthesia, and then both eyeballs were excised and fixed with 4% paraformaldehyde (PFA) at 37° C. for 1 hour, and the corneal limbus was circumferentially incised to remove the cornea and iris from the eyeball. Then, after fixation with 4% PFA at 37° C. for 1 hour, the lens, sclera, and choroid were removed, and the eye cup including the retina was isolated. Further, the retina was fixed with 4% PFA at 37° C. for 3 hours, washed with PBS three times (15 min per wash, 37° C.), dehydrated (methanol 50% 100%, 10 min per methanol treatment, 37° C.), washed with PBS three times (15 min per wash, 37° C.), and blocked with Blocking Buffer (1% BSA, 0.5% Triton-X in PBS) for 60 minutes (37° C.). Then, the retina was treated with a primary antibody (0.7% FITC-conjugates Anti-lectin Ab in PBS, 4° C., overnight) and washed with PBS three times (15 min per wash, 37° C.). Then, 4 to 6 cuts were radially made in the eye cup, and the flat-mounted retina was covered with Crystal Mount. Then, the image of the flat-mounted retina was taken with a fluorescence microscope (BZ-9000, KEYENCE Corp, Osaka, Japan), and the proportion of the non-perfused area to the entire retina and the proportion of the neovascular area to the entire retina were calculated by the following formulas in NIH image J software. The thus obtained values were converted to relative values by regarding the obtained values of the saline instillation group (control) as 100%, and statistical analysis was performed by Wilcoxon test. Non-perfused area=area of avascular region/area of entire retina Neovascular area=area of neovascular region/area of entire retina

[2] = tested on: b-END3 (bEND.3) mouse brain microvascular endothelial cells; assay: Tight junction test: F-Actin immunostaining in b-END3 cells; type: cell-based; conditions: pretreatment 3 μM or 30 μM, 3 hours; VEGF 25 ng/mL or IL-6 10 ng/mL, 24 hours
Procedure: According to a conventional method, b-END3 (bEND.3: ATCC CRL-2299™) cells, which are mouse brain microvascular endothelial cells, were subcultured in 3.5 cm dishes (9×10^5 cells/dish), and a test was started from day 6 after subculture. […]
The cells after the test were subjected to immunostaining according to the following procedure to evaluate the expression of Claudin-5 or F-Actin. […] Then, a cover glass-sized cell sample was prepared by trimming with a cotton swab, enclosed with a Dako pen, blocked with 10% normal goat serum (10% normal goat serum ready-to-use (Invitrogen)) (30 min, ordinary temperature), and allowed to stand at 4° C. overnight. […]

## C[C@H]1CNCCCN1S(=O)(=O)c1cccc2cncc(F)c12 [compound 1, (S)-(−)-1-(4-fluoro-5-isoquinolinesulfonyl)-2-methyl-1,4-homopiperazine]
[1]; 0.4% solution
  relative value of the neovascular area (saline instillation group = 100%): 58.2%
  relative value of the non-perfused area (saline instillation group = 100%): 77.0%
[1]; 0.8% solution
  relative value of the neovascular area (saline instillation group = 100%): 52.7%
  relative value of the non-perfused area (saline instillation group = 100%): 58.1%
[2]
  F-Actin polymerization caused by VEGF stimulation or IL-6 stimulation: suppression of F-Actin polymerization
